{"source": "patent US7192768B2", "about": "“Synchronization of the cytoplasmatic and the nuclear maturation of oocytes in vitro” (Novo Nordisk A/S, priority 2001, dated 2007)", "key": {"[1]": {"system": "cumulus-enclosed oocytes (CEO)", "assay": "FSH induced resumption of meiosis and cumulus expansion of hypoxanthine arrested mouse oocytes cultured in vitro (22-hydroxycholesterol)", "assay_type": "cell-based", "design": "Cumulus expansion: key to the marks not given beside the values", "description": "Immature female mice (B6D2-F1 strain C57B1/2J) were kept under controlled light and temperature conditions with free access to food and water. Ovarian stimulation was performed when the mice weighed 10–16 grams and consisted of an intra-peritoneal injection of Gonadoplex (Leo, Copenhagen, Denmark) containing 7.5 U/mouse. The animals were killed by cervical dislocation 44–48 h later. The media used for the culture of oocytes consisted of α-Minimum Essential Medium (α-MEM), with Earles Balanced Salt Solution (EBSS), containing 4 mM hypoxanthine, 3 mg/ml bovine serum albumin, 0.23 mM pyruvate, 2 mM glutamine (all Sigma, U.S.A) and 100 IU/ml penicillin, 100 ug/ml Streptomycin. This medium was termed “HX-medium”. A media similar to the above but without HX are termed “maturation-medium”. Oocytes were isolated in HX-medium under a stereo microscope by manual rupture of follicles using a pair of 5.5-gauge needles. Spherical oocytes with intact cumulus cells connection and displaying germinal vesicle were categorized as cumulus-enclosed oocytes (CEO). Oocytes were rinsed 3 times in fresh HX-medium. Prior to each experimental set-up, all oocytes from 10–15 mice were pooled. Only oocytes with a germinal vesicle present were used and distributed in separate wells of a 4-well dish (Nuncoln, Denmark) containing 1 ml of HX-medium. Each well contained 20–30 oocytes and was cultured at 37° C. in 100% humidity in air with 5% CO2. Each experiment was repeated at least 4 times. At the end of the culture period (i.e 24 h), oocytes with GV or GVBD, or polar body (PB) were counted using an inverted microscope with differential interference contrast equipment (Leica, German). […]\nGraduation of cumulus expansion: 0: No expansion, compact cumulus layer surrounding the oocyte; +: A slight cumulus expansion, the most peripheral cumulus cell looks a little fluffy; ++: good expansion of cumulus cell without a spherical cloud like expansion; +++: full cumulus expansion with a fluffy cloud like expansion with extended distance between the somatic cells."}, "cultured mouse oocytes": {"system": "cultured mouse oocytes", "settings": "WO 98/28323; cited from earlier work"}, "[2]": {"system": "cumulus enclosed mouse oocytes", "assay": "FSH induced resumption of meiosis of mouse oocytes cultured in vitro (dbc-AMP control medium)", "assay_type": "cell-based", "settings": "for % GVBD / % PB (PB/GVBD): 22-24 h", "description": "Immature female mice (B6D2-F1 strain C57B1/2J) were kept under controlled light and temperature conditions with free access to food and water. Ovarian stimulation was performed when the mice weighed 10–16 grams and consisted of an intra-peritoneal injection of Gonadoplex (Leo, Copenhagen, Denmark) containing 7.5 U/mouse. The animals were killed by cervical dislocation 44–48 h later. The media used for the culture of oocytes consisted of α-Minimum Essential Medium (α-MEM), with Earles Balanced Salt Solution (EBSS), 200 μM dibuturyl-cyclic-adenosine-mono-phosphate (dbc-AMP), 3 mg/ml Bovine Serum Albumin, 0,23 mM pyruvate, 2 mM glutamine, 100 IU/ml penicillin and 100 mg/ml streptomycin (i.e. control medium). The ovaries were recovered and oocytes isolated from the ovaries by puncturing individual follicles using a 25 gauge needle. The oocytes were washed 3 times in control medium before the start of each experiment. Cumulus enclosed oocytes were cultured separately in 4-well dishes (Nuncleon, Roskilde, Denmark), 0.4 ml medium in each well containing control medium or medium supplemented with ketoconazole in a 100% humidified atmosphere of 5% CO2 with 95% air at 37° C. The culture period was 22–24 h. By the end of the culture period, germinal vesicle breakdown (GVBD) was scored by examining the oocyte in an inverted microscope. The percentage of oocytes with GVBD per total number of oocytes (% GVBD) was calculated."}, "[3]": {"system": "cumulus-enclosed oocytes (CEO)", "assay": "FSH induced resumption of meiosis of hypoxanthine arrested mouse oocytes cultured in vitro (ketoconazole)", "assay_type": "cell-based", "settings": "HX-medium; for % GVBD / % PB (PB/GVBD): 24 h", "description": "Oocytes were obtained from immature mice (Kunming white mouse) weighing 14–16 g that were kept under controlled light and temperature conditions with free access to water. The mice received an intra peritoneal injection of 0.1 ml pregnant mare's serum gonadotrophin (PMSG, Sigma, New York, U.S.A) containing 10 IU PMSG. Forty-six hours later, the animals were killed by cervical dislocation. The ovaries were dissected out and placed in M199 culture medium (GIBCO, U.S.A) containing 4 mM hypoxanthine, 3 mg/ml bovine serum albumin, 0.23 mM pyruvate, 2 mM glutamine (all Sigma, U.S.A) and 100 IU/ml penicillin, 100 ug/ml Streptomycin. This medium was termed “HX-medium”. A media similar to the above but without HX are termed “maturation-medium”. Oocytes were isolated in HX-medium under a stereo microscope by manual rupture of follicles using a pair of 5.5-gauge needles. Spherical oocytes with intact cumulus cells connection and displaying germinal vesicle were categorized as cumulus-enclosed oocytes (CEO). Oocytes were rinsed 3 times in fresh HX-medium. Prior to each experimental set-up, all oocytes from 10–15 mice were pooled. Only oocytes with a germinal vesicle present were used and distributed in separate wells of a 4-well dish (Nuncoln, Denmark) containing 1 ml of HX-medium. Each well contained 20–30 oocytes and was cultured at 37° C. in 1000% humidity in air with 5% CO2. Each experiment was repeated at least 4 times. At the end of the culture period (i.e 24 h), oocytes with GV or GVBD, or polar body (PB) were counted using an inverted microscope with differential interference contrast equipment (Leica, German). The percentage of oocytes with GVBD per total number of oocytes (% GVBD) and the percentage of oocytes with PB formation per total number of oocytes (% PB) were calculated."}, "cumulus enclosed oocytes": {"system": "cumulus enclosed oocytes", "settings": "AY added to cumulus enclosed oocytes; cited from earlier work"}, "human oocytes": {"system": "human oocytes", "settings": "EGF 2 ng/ml, 30 h culture; cited from earlier work"}, "[4]": {"settings": "22-OH-cholesterole 1 μg/ml + FSH 75 IU/L, with fetal calf serum"}, "[5]": {"settings": "22-OH-cholesterole 1 μg/ml + FSH 75 IU/L, without fetal calf serum"}, "[6]": {"settings": "22-OH-cholesterole 5 μg/ml + FSH 75 IU/L, without fetal calf serum"}, "[7]": {"settings": "22-OH-cholesterole 10 μg/ml + FSH 75 IU/L, with fetal calf serum"}, "[8]": {"settings": "22-OH-cholesterole 10 μg/ml + FSH 75 IU/L, without fetal calf serum"}, "[9]": {"settings": "22-OH-cholesterole 25 μg/ml + FSH 75 IU/L, with fetal calf serum"}, "[10]": {"settings": "22-OH-cholesterole 25 μg/ml + FSH 75 IU/L, without fetal calf serum"}, "[11]": {"settings": "ketoconazole 5 μM in medium with FSH 75 IU/L"}, "[12]": {"settings": "ketoconazole 10 μM in medium with FSH 75 IU/L"}, "[13]": {"settings": "ketoconazole 20 μM in medium with FSH 75 IU/L"}, "[14]": {"settings": "ketoconazole 0.1 μM + FSH 50 IU/L"}, "[15]": {"settings": "ketoconazole 1 μM + FSH 50 IU/L"}, "[16]": {"settings": "ketoconazole 10 μM + FSH 50 IU/L"}, "[17]": {"settings": "ketoconazole 100 μM + FSH 50 IU/L"}, "[18]": {"settings": "ketoconazole 1000 μM + FSH 50 IU/L"}}, "note": "Marks after values point to notes of the source that are not given here."}
{"compound": "CC(C)CCC(O)[C@@H](C)[C@H]1CC[C@H]2[C@@H]3CC=C4C[C@@H](O)CC[C@]4(C)[C@H]3CC[C@]12C", "note": "(some centres unmarked) [22-OH-cholesterole, 22-hydroxycholesterol]", "values": [{"measurement": "% GVBD", "setting": "[1]; [4]", "value": 41, "unit": "%"}, {"measurement": "% PB (PB/GVBD)", "setting": "[1]; [4]", "value": 29, "unit": "%"}, {"measurement": "Cumulus expansion", "setting": "[1]; [4]", "value": "+++"}, {"measurement": "% GVBD", "setting": "[1]; [5]", "value": 62, "unit": "%"}, {"measurement": "% PB (PB/GVBD)", "setting": "[1]; [5]", "value": "25* %"}, {"measurement": "% GVBD", "setting": "[1]; 22-OH-cholesterole 3 μg/ml alone (no FSH), without fetal calf serum, HX-medium, 24 h", "value": 26, "unit": "%"}, {"measurement": "% GVBD", "setting": "[1]; [6]", "value": 72, "unit": "%"}, {"measurement": "% PB (PB/GVBD)", "setting": "[1]; [6]", "value": "26* %"}, {"measurement": "% GVBD", "setting": "[1]; [7]", "value": "39* %"}, {"measurement": "% PB (PB/GVBD)", "setting": "[1]; [7]", "value": "14* %"}, {"measurement": "% GVBD", "setting": "[1]; [8]", "value": "31* %"}, {"measurement": "% PB (PB/GVBD)", "setting": "[1]; [8]", "value": "11* %"}, {"measurement": "% GVBD", "setting": "[1]; [9]", "value": "19* %"}, {"measurement": "% PB (PB/GVBD)", "setting": "[1]; [9]", "value": "28* %"}, {"measurement": "% GVBD", "setting": "[1]; [10]", "value": "17* %"}, {"measurement": "% PB (PB/GVBD)", "setting": "[1]; [10]", "value": "0* %"}, {"measurement": "cumulus expansion with 22-hydroxycholesterol and FSH compared with FSH alone (in words)", "setting": "[1]; tables 3 and 4, FSH 75 IU/L", "value": "occurs to similar degree"}, {"measurement": "effect on FSH induced resumption of meiosis (in words)", "setting": "[1]; tables 3 and 4, FSH 75 IU/L", "value": "prevents oocytes from resuming meiosis in the presence of FSH"}, {"measurement": "effect on FF-MAS induced resumption of meiosis (in words)", "setting": "cultured mouse oocytes", "value": "can prevent a FF-MAS induced resumption of meiosis"}]}
{"compound": "CC(=O)N1CCN(c2ccc(OCC3COC(Cn4ccnc4)(c4ccc(Cl)cc4Cl)O3)cc2)CC1", "note": "(centres unmarked) [Ketoconazole, ketoconazole]", "values": [{"measurement": "% GVBD", "setting": "[2]; [11]", "value": 7, "unit": "%"}, {"measurement": "% PB (PB/GVBD)", "setting": "[2]; [11]", "value": 57, "unit": "%"}, {"measurement": "% GVBD", "setting": "[2]; [12]", "value": 7, "unit": "%"}, {"measurement": "% PB (PB/GVBD)", "setting": "[2]; [12]", "value": 8, "unit": "%"}, {"measurement": "% GVBD", "setting": "[2]; [13]", "value": 3, "unit": "%"}, {"measurement": "% PB (PB/GVBD)", "setting": "[2]; [13]", "value": 0, "unit": "%"}, {"measurement": "effect on FSH induced resumption of meiosis (in words)", "setting": "[2]; ketoconazole 5-20 μM with FSH 75 IU/L", "value": "able to prevent oocytes resuming meiosis"}, {"measurement": "% GVBD", "setting": "[3]; [14]", "value": 58, "unit": "%"}, {"measurement": "% PB (PB/GVBD)", "setting": "[3]; [14]", "value": 33, "unit": "%"}, {"measurement": "% GVBD", "setting": "[3]; [15]", "value": "48* %"}, {"measurement": "% PB (PB/GVBD)", "setting": "[3]; [15]", "value": 30, "unit": "%"}, {"measurement": "% GVBD", "setting": "[3]; [16]", "value": "35* %"}, {"measurement": "% PB (PB/GVBD)", "setting": "[3]; [16]", "value": 25, "unit": "%"}, {"measurement": "% GVBD", "setting": "[3]; [17]", "value": "20* %"}, {"measurement": "% PB (PB/GVBD)", "setting": "[3]; [17]", "value": "19* %"}, {"measurement": "% GVBD", "setting": "[3]; [18]", "value": "21* %"}, {"measurement": "% PB (PB/GVBD)", "setting": "[3]; [18]", "value": "17* %"}, {"measurement": "effect on FSH induced resumption of meiosis (in words)", "setting": "[3]; ketoconazole with FSH 50 IU/L", "value": "prevents oocytes from resuming meiosis"}, {"measurement": "effect on PB formation (in words)", "setting": "[3]; ketoconazole with FSH 50 IU/L", "value": "dose-dependant inhibition of PB formation"}]}
{"compound": "AY-9944-A-7", "values": [{"measurement": "accumulation of FF-MAS (in words)", "setting": "cumulus enclosed oocytes", "value": "causes accumulation of FF-MAS"}, {"measurement": "resumption of meiosis (in words)", "setting": "cumulus enclosed oocytes", "value": "dose-dependant induction of resumption of meiosis"}]}
{"compound": "EGF: epidermal growth factor (NSDSECPLSHDGYCLHDGVCMYIEALDKYACNCVVGYIGERCQYRDLKWWELR; UniProt P01133 971-1023, looked up)", "values": [{"measurement": "number of germinal vesicle oocytes reaching metaphase II (in words)", "setting": "human oocytes", "value": "enhanced"}]}
